Patent US20230250077A1, “SULFONYLBENZAMIDE DERIVATIVE AND CONJUGATE THEREOF, PREPARATION METHOD THEREFOR AND USE THEREOF” (Jiangsu Hengrui Pharmaceuticals Co., Ltd., priority 2020, published 2023)

Assays:
NCI-H146 cells = assay: Inhibition of proliferation of NCI-H146 cells (CellTiter-Glo); format: cell-based; conditions: Homo sapiens, 72 h, 3 days, read-out: Inhibitory activity IC50 (nM) for the proliferation of NCI-H146 cells
Procedure: In vitro inhibitory activity for the proliferation of RS4;11 cells and NCI-H146 cells was tested by the following method.
Reagents used in this experiment: RPMI-1640 medium (HyCLone, Cat #SH30243018); fetal bovine serum (Gibco, Cat #10099-141); pancreatin (Gibco, Cat #25200-072); Cell Titer-Glo (Promega, Cat #G7571).
Materials used: RS4;11 cells (Nanjing Kebai Biotechnology Co., Ltd, Cat #CBP60641); and NCI-H146 cells (ATCC, Cat #HTB-173).
The in vitro cell proliferation assay described below can determine the inhibitory activity of the test compounds for the proliferation of RS4;11 cells and NCI-H146 cells.
RS4;11 cells (or NCI-H146 cells) were cultured in an RPMI-1640 culture medium containing 10% FBS, and were passaged for 2-3 times a week in a passage ratio of 1:3 or 1:5. During passage, the cells were transferred to a centrifuge tube, and centrifuged at 1200 rpm for 3 min. The supernatant was discarded, and fresh culture medium was added to resuspend the cells. 90 μL of cell suspension was added to a 96-well cell culture plate, wherein RS4;11 cells and NCI-H146 cells were added at a density of 2.22×10^5 cells/mL. Only 100 μL of complete medium (RPMI-1640 medium containing 10% FBS) was added to the periphery of the 96-well plate. The plate was incubated in an incubator for 24 h (37° C., 5% CO2).
The test sample was diluted to a proper concentration gradient with dimethyl sulfoxide as required for the experiment. 5 μL of the solution of the test compound prepared in a gradient concentration was added to 95 μL of fresh culture medium and mixed uniformly, and then 10 μL of the culture medium containing the above compound was added to a cell culture plate. The cell culture plate was incubated in an incubator for 3 days (37° C., 5% CO2). 50 μL of CellTiter-Glo reagent was added into each well of the 96-well cell culture plate. The plate was let stand for 5-10 min away from the light at room temperature. The chemiluminescence signals were read by a microplate reader (BMG Labtech, model: PHERAstar FS) and the data were processed by GraphPad software.

BCL-xL = biological target: T1, BCL-xL (Homo sapiens, UniProt Q07817); assay: Binding activity for BCL-xL (HTRF, biotin-labeled BIM); conditions: His-tagged BCL-xL
T1 construct: purchased R&D 894-BX-050
T1 sequence (Q07817 whole entry): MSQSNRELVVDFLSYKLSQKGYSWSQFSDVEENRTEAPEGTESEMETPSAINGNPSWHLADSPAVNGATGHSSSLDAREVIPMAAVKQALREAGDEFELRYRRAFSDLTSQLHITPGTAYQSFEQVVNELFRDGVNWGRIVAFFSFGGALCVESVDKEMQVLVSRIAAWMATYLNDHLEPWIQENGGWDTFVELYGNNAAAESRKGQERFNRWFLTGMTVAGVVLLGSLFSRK
Procedure: In vitro BCL-xL-binding activity was tested by the following method.
Reagents used in this experiment: His-tagged BCL-xL protein (R&D, Cat #894-BX-050); biotin-labeled BIM protein (R&D, Cat #3526/1); binding buffer (cisbio, Cat #62DLBDDF); assay buffer (cisbio, Cat #62DB1FDG); MAb anti-6His-Eu cryptate (cisbio, Cat #61HI2KLA); and affinity streptomycin linked XL665 (cisbio, Cat #611SAXLA).
The in vitro binding assay described below can determine the binding activity of test compounds for BCL-xL.
The test compounds were dissolved in dimethyl sulfoxide and diluted to gradient concentrations as required for the experiment, and the compounds at various concentrations formulated in dimethyl sulfoxide were subjected to a 100-fold dilution with a binding buffer. BCL-xL was diluted to the corresponding concentration with a binding buffer, and added to a white 384-well plate at 4 μL/well. Then the diluted test compound was added to the white 384-well plate at 2 μL/well. The plate was incubated at 25° C. for 1 h after the mixture was uniformly mixed. Biotin-labeled BIM protein was diluted to the corresponding concentration with a binding buffer, and added to a white 384-well plate at 4 μL/well. The plate was incubated at 25° C. for 2 h after the mixture was uniformly mixed. The MAb anti-6His-Eu cryptate and the affinity streptomycin linked XL665 were each diluted to the corresponding concentration with an assay buffer, and added to a white 384-well plate at 5 μL/well. The plate was incubated at 25° C. for 2-4 h after the mixture was uniformly mixed. The signal values were read with the HTRF program in a microplate reader (BMG Labtech, model: PHERAstar FS).

[1] = Pharmacokinetic evaluation in mice (iv, LC/MS/MS plasma); format: in vivo; conditions: intravenous administration
Procedure: The drug concentration in the plasma of the test animals (mice) at different time points after intravenous (iv) administration of compound 10 and AZD4320 was determined by an LC/MS/MS method. The pharmacokinetic behavior of the compounds of the present disclosure in mice was studied and their pharmacokinetic profile was valuated.
18 C57 mice, female, randomly divided into 2 groups, purchased from Zhejiang Vital River Laboratory Animal Technology Co., Ltd, animal production license number: SCXK (Shanghai) 2017-0005.
A certain amount of compound 10 was weighed, dissolved by adding 5% by volume of DMSO and 5% Tween 80 (Shanghai Titan Scientific Co., Ltd.), and then prepared into a 0.1 mg/mL clear solution by adding 90% normal saline. Compound AZD4320 was formulated as with compound 10. […]
(§1) The mice were intravenously administered with compound 10, and 0.1 mL of blood was collected before the administration and 5 min, 0.25 h, 0.5 h, 1.0 h, 2.0 h, 4.0 h, 8.0 h, 11.0 h and 24.0 h after the administration, put into an EDTA-K2 anticoagulation tube, centrifuged at 10,000 rpm for 1 min (4° C.). Plasma was separated within 1 hour, and stored at −20° C. for testing. The process from blood collection to centrifugation was performed under an ice bath.
as §1, with “compound AZD4320,” for “compound 10,”
The content of the test compounds at different concentrations in plasma of mice after the administration was determined: 10 μL of plasma of mice at each time point after the administration was mixed with 200 μL of methanol (containing an internal standard solution camptothecin (100 ng/mL)); the mixture was vortexed for 1 min, and centrifuged for 10 min (18,000 r/min), and 3 μL of supernatant was taken for LC/MS/MS analysis.

Row | SMILES | IC50 (NCI-H146 cells) [nM] | Ki (BCL-xL) [nM] | Clearance CLz/F ([1]; C57 mice, female, dose 1 mg/kg (table)) [mL/min/kg] | Clearance in mice (in words) ([1]; mice) | Elimination phase half-life compared with the positive control AZD 4320 (in words) ([1]; mice) | AUC(0-t) ([1]; mouse, plasma, C57 mice, female, dose 1 mg/kg (table), read-out: Area under curve AUC0-t) [ng·h/mL] | half-life ([1]; mouse, plasma, C57 mice, female, dose 1 mg/kg (table), read-out: Half-life T½ (converted)) [h] | MRT inf ([1]; mouse, plasma, C57 mice, female, dose 1 mg/kg (table), read-out: Mean retention time MRT 0-∞) [h] | concentration at 5 min ([1]; mouse, plasma, C57 mice, female, dose 1 mg/kg (table), read-out: Plasma Concentration C5 min) [ng/mL]
1 | O=C(NS(=O)(=O)c1ccc(N[C@@H](CSc2ccccc2)C[C@@H]2CCCN2CCO)c(S(=O)(=O)C(F)(F)F)c1)c1ccc(N2CCC([C@@H](O)c3ccccc3-c3ccc(Cl)cc3)CC2)cc1 [Example 2-9, 4-(4-((R)-(4′-chloro-[1,1′-biphenyl]-2-yl)(hydroxy)methyl)piperidin-1-yl)-N-((4-(((R)-1-((S)-1-(2-hydroxyethyl)pyrrolidin-2-yl)-3-(phenylthio)propan-2-yl)amino)-3-((trifluoromethyl)sulfonyl)phenyl)sulfonyl)benzamide] | 7 | 0.07 | – | – | – | – | – | – | –
2 | CN(CCO)CC[C@H](CSc1ccccc1)Nc1ccc(S(=O)(=O)NC(=O)c2ccc(N3CCC([C@@H](O)c4ccccc4-c4ccc(C(F)(F)F)cc4)CC3)cc2)cc1S(=O)(=O)C(F)(F)F [Example 2-10, 4-(4-((R)-hydroxy(4′-(trifluoromethyl)-[1,1′-biphenyl]-2-yl)methyl)piperidin-1-yl)-N-((4-(((R)-4-((2-hydroxyethyl)(methyl)amino)-1-(phenylthio)butan-2-yl)amino)-3-((trifluoromethyl)sulfonyl)phenyl)sulfonyl)benzamide] | 4 | 0.07 | 50.3 | cleared slowly | longer elimination phase half-life than the positive control AZD 4320 | 296 | 13 | 7.3 | 608
